Source: patent US20160106722A1, “HUMAN THERAPEUTIC AGENTS” (Life Plus, LLC, priority 2014, published 2016)

Columns and labels:
Assay in all cases: Cancer spheroid cell death test (PrestoBlue)
Assay type in all cases: cell-based
[1] = tested on: human lung cancer cells (H358); settings: compound alone
Experimental: (§1) Custom-made micromolds with 100 μm diameter wells were loaded with the cells (U.S. Pat. No. 8,735,154, incorporated by reference herein). The media were changed every day by partial replacement. Cell aggregates were allowed to form in the micromolds for 72 hours and then were transferred to a 100 mm non-treated tissue culture dishes for 3 additional days. The spheroids were passed through 70 μm and 100 μm cell strainers (#3431751 and #43152, Corning, Tewksbury, Mass.) and maintained in HEPES Balanced Salt Solution comprised of: 20 mM HEPES, 114 mM NaCl, 4.7 mM KCl, 1.2 mM KH2PO4, 1.16 mM MgSO4, 2.5 mM CaCl2, 25.5 mM NaHCO3 and 0.2% bovine serum albumin (fatty acid free), pH 7.2.
The lymphomas treatment methods used were identical to those described in Example 2 relative to the pediatric leukemia cells, whereas the lung cancer treatment method was the same as described in Example 1.

[2] = tested on: human ovarian cancer cells (A1847); settings: for anticancer effects (cell number versus increasing concentrations): compound alone
Experimental: as §1
(§2) The cells were treated and tested as set forth in Example 1.

[3] = tested on: human prostate cancer cells (22rv1); settings: compound alone
Experimental: as §1, §2

SMILES	anticancer effects (cell number versus increasing concentrations) [1]	anticancer effects (cell number versus increasing concentrations) [2]	anticancer effects (cell number versus increasing concentrations) [3]	cell death, doxorubicin alone ([2]; low doses of doxorubicin alone (up to 0.158 μM))
COc1cccc(C=O)c1O [O-vanillin]	demonstrated anticancer effects	demonstrated anticancer effects	demonstrated anticancer effects	
COc1cccc2c1C(=O)c1c(O)c3c(c(O)c1C2=O)C[C@@](O)(C(=O)CO)C[C@@H]3O[C@H]1C[C@H](N)[C@H](O)[C@H](C)O1 [doxorubicin, reference compound]				ineffective
COc1ccc2c3c([nH]c2c1)C(C)=NCC3 [harmaline]	demonstrated anticancer effects	demonstrated anticancer effects	demonstrated anticancer effects	
CC1=NCCc2c1[nH]c1cc(O)ccc21.Cl [harmalol hydrochloride]	demonstrated anticancer effects	demonstrated anticancer effects	demonstrated anticancer effects	
Cc1nccc2c1[nH]c1cc(O)ccc12.Cl [harmole hydrochloride]	demonstrated anticancer effects	demonstrated anticancer effects	demonstrated anticancer effects	
COc1ccc(C(=O)O)cc1O [isovanillic acid]	demonstrated anticancer effects	demonstrated anticancer effects	demonstrated anticancer effects	
COc1ccc(CO)cc1O [isovanillyl alcohol]	demonstrated anticancer effects	demonstrated anticancer effects	demonstrated anticancer effects	
COc1ccc2c3c([nH]c2c1)[C@@H](C)NCC3 [tetrahydro-harmine]	demonstrated anticancer effects	demonstrated anticancer effects	demonstrated anticancer effects	
COc1cc(C=O)ccc1O [vanillin]	demonstrated anticancer effects	demonstrated anticancer effects	demonstrated anticancer effects	
